Key:
[1] = tested on: ETRB; test: Western blot of ETRB protein after BQ788; format: cell-based, human; details: SK-MEL-28 cells; 3, 5 and 7 days with BQ788
Description: Real-time RT-PCR detection of ETRB transcripts (see legends FIG. 2) (A). ETRB protein expression compared to tubulin in SK-MEL-28 cells after 3, 5 and 7 days with (+) or without (−) BQ788 (B).
Samples were subjected to SDS-PAGE according to the method as described (Laemmli, Cleavage of structural proteins during the assembly of the head of bacteriophage T4, Nature, 227:680-685 (1970)). Proteins were blotted onto PVDF (Millipore) membranes and the filters were blocked with 5% non-fat dry milk. Immunostaining was preformed with anti-human endothelin receptor B antibody (Assay Designs, Inc.) (4 μg/ml) or anti-human Tubulin (Oncogene Research Products) (1 μg/ml) followed by incubation with a peroxidase conjugated goat anti rabbit secondary antibody (Sigma) (1:5000). Bands of 51 kd and 60 kd for ETRB (Hiraki, et al, Regular immunohistochemical localization of endothelin-1 and endothelin receptor B in normal, hyperplastic and neoplastic human adrenocortical cells, Pathol. Int., 47:117-125 (1997)) and tubulin respectively were detected using a chemiluminescent substrate kit (Interchim) according to the manufacturer's recommendations.

[2] = tested on: Cut-met line; test: Apoptosis detection ELISA (histone-associated DNA fragments); format: cell-based, human; details: BQ788 5 days
Protocol: (§1) Cells were plated in 24 wells plate in 500 μl medium and cultured for 5 days in the presence of BQ788 or solvent. A cell death detection ELISA PLUS kit (Roche) designed to reveal histone-180 bp DNA fragment complexes of nucleosomes was used to measure apoptosis. Briefly, cells floating in the supernatants and those attached to the dish were incubated in lysis buffer for 30 min. in room temperature (RT). After spinning for 10 min at 200 g, the DNA content of each sample was determined. 20 μl containing equal amounts of DNA were added to each well (3 wells per condition) coated with anti-histone antibody and incubated with additional 80 μl anti-DNA peroxidase immunogen under gentle shaking conditions for 2 h at RT. After washing and revelation with peroxidase substrate the samples OD were measured at 405 nm against substrate containing wells as blank.
(§2) Because BCL-2A1 and PARP are known regulators of apoptosis (Smulson, et al., Roles of poly(ADP-ribosyl)ation and PARP in apoptosis, DNA repair, genomic stability and functions of p53 and E2F-1, Adv. Enzyme Regul., 40:183-215 (2000); Vander Heiden, et al., Bcl-2 proteins: regulators of apoptosis or of mitochondrial homeostasis?, Nat. Cell Biol., 1:E209-E216, (1999)), we used an apoptosis detection ELISA that detects histone-associated DNA fragments to measure apoptotic cell death in the different cell lines treated with BQ788.

[3] = tested on: SK-MEL-28; test: as above; format: cell-based, human; details: BQ788 5 days
Protocol: as §1, §2

[4] = tested on: LN-met; test: as above; format: cell-based, human; details: BQ788 5 days
Protocol: as §1, §2

[5] = tested on: primary melanoma cells; test: as above; format: cell-based, human; details: BQ788 5 days
Protocol: as §1, §2

[6] = tested on: tumors derived from a human melanoma cell line grown in nude mice; details: cited from earlier work
[7] = tested on: BCL-2A1; test: Real-time RT-PCR of BCL-2A1 transcripts; format: cell-based, human; details: BQ788 3 days
Protocol: Equal amounts of RNA from cells that were treated with BQ788 for 3 days were subjected to real-time RT-PCR analysis for the detection of BCL-2A1 (A) and ADP ribosyltransferase 3 (B) transcripts. Total amounts are represented in A while relative (to control) values are shown in B. Differences in expression levels are shown as x fold decrease and are statistically significant (p<0.05) unless a column in marked as non significant (N.S.). Lysates of BQ788 treated cells and controls were subjected to an apoptosis ELISA detection test (C). SK-MEL-28 cells were cultured with pan caspase inhibitor (D) or with caspase 6 inhibitor (E) with or without BQ788 for 2.5 days. […] SK-MEL-28 cells were cultured for 3 days in the presence of BQ788 and assayed for caspase 6 activity (F). The difference between the columns is statistically significant (p<0.05).
RNA was prepared from the different cell lines in different culture conditions using SV total RNA isolation kit (Promega) according to the manufacturer's protocol. For each sample RNA concentration was determined using the total RNA nano procedure of an Agilent bioanalyzer. A stock of SK-MEL-28 RNA aliquots was prepared containing 10, 20, 50, 100, 200, 500 and 1000 ng/12 μl for use as a standard curve and kept in −80° C. For the experimental unknown samples, a stock of 100 ng/12 μl RNA aliquots from each cell line and condition was prepared and stored at −80° C. For each real-time experiment one series of standard curve and unknown experimental series of aliquots was put on ice for use. Complementary DNA was prepared by adding to each tube 0.5 μl of random hexamers (Promega) and 1 μl of 10 mM dNTP mix (Promega) and incubating at 65° C. for 5 min. 4 μl of 5× M-MLV buffer (Promega), 1 μl of the RNase inhibitor RNasin (Promega) and 1 μl of M-MLV RT RNase H (Promega) were then added and the solution was incubated at 42° C. for 50 min followed by 15 min at 70° C. For real time reactions 15 μl of each cDNA sample were transferred to 3 wells in a 386 well plate. To each well we added 10 μl of TaqMan universal PCR master mix (Applied Biosystems), 1 μl of primers+probe mix (Assays-on-Demand from Applied Biosystems: EDNRB Hs00240747, BCL-2A1 Hs00187845, PARP-3 Hs00154151, VEGF Hs00173626, HIF-1α Hs00153153 and Gravin Hs00374507) and 4 μl of nuclease free water (Promega). […] A standard curve of Ct versus RNA quantity was established and accordingly the Ct in the unknown samples was correlated to quantity of transcript.
If the observed reduction in BCL-2A1 and PARP-3 expression is implicated in ETRB blockade-dependent cell death, one would expect the more resistant cell lines to display less reduction in BCL-2A1 and PARP-3 levels. To test this possibility and to validate our microarray results, we used quantitative real-time PCR.

CCCC[C@@H](NC(=O)[C@@H](Cc1cn(C(=O)OC)c2ccccc12)NC(=O)[C@H](CC(C)(C)C)NC(=O)N1[C@H](C)CCC[C@@H]1C)C(=O)O [BQ788, N-cis-2,6-dimethylpiperidinocarbonyl-L-γ-methylleucyl-D-1-methoxycarbonyltrptophanyl-D-norleucine]
ETRB protein levels [1]: reduced
apoptosis level [2]: slight increase
apoptosis level [3]: highest induction
apoptosis level [4]: intermediate level
apoptosis level [5]: did not display apoptosis
tumor growth ([6]; human melanoma tumors in nude mice injected with BQ788): inhibition of growth
tumor size ([6]; tumors treated systemically, nude mice): shrinkage of tumors
decrease in BCL-2A1 levels ([7]; Cut-met line): 1.8 fold
decrease in BCL-2A1 levels ([7]; LN-met): 2.9 fold
decrease in BCL-2A1 levels ([7]; SK-MEL-28): 5.7 fold
BCL-2A1 expression change ([7]; primary melanoma cells): did not change
